Measurements reported in patent publication US20230303513A1, “OXOPYRROLIDINE UREA FPR2 AGONISTS” (BRISTOL-MYERS SQUIBB COMPANY, priority 2020, published 2023).

Experiments:
human FPR2 = human FPR2 (Homo sapiens (Human), UniProt P25090); experiment: FPR2 cyclic adenosine monophosphate (cAMP) assay; assay type: cell-based; settings: CHO cells overexpressing human FPR2; forskolin 5 μM, IBMX 200 μM; inhibition of cAMP production, HTRF; read-out: hFPR2 cAMP2 EC50
Source text: (§1) N-formyl peptide receptors (FPRs) are a family of chemo attractant receptors that facilitate leukocyte response during inflammation. FPRs belong to the seven-transmembrane G protein-coupled receptor superfamily and are linked to inhibitory G-proteins (Gi). Three family members (FPR1, FPR2 and FPR3) have been identified in humans and are predominantly found in myeloid cells with varied distribution and have also been reported in multiple organs and tissues. After agonist binding, the FPRs activate a multitude of physiological pathways, such as intra cellular signaling transduction, Ca^21 mobilization and transcription. The family interacts with a diverse set of ligands that includes proteins, polypeptides and fatty acid metabolites which activate both pro-inflammatory and pro-resolution downstream responses. FPR2 and FPR1 Cyclic Adenosine Monophosphate (cAMP) Assays were used to measure the activity of the compounds in this patent.
(§2) FPR2 and FPR1 Cyclic Adenosine Monophosphate (cAMP) Assays. A mixture of forskolin (5 μM final for FPR2 or 10 μM final for FPR1) and IBMX (200 μM final) were added to 384-well Proxiplates (Perkin-Elmer) pre-dotted with test compounds in DMSO (1% final) at final concentrations in the range of 0.020 nM to 100 μM. Chinese Hamster Ovary cells (CHO) overexpressing human FPR1 or human FPR2 receptors were cultured in F-12 (Ham's) medium supplemented with 10% qualified FBS, 250 μg/ml zeocin and 300 μg/ml hygromycin (Life Technologies). Reactions were initiated by adding 2,000 human FPR2 cells per well or 4,000 human FPR1 cells per well in Dulbecco's PBS (with calcium and magnesium) (Life Technologies) supplemented with 0.1% BSA (Perkin-Elmer). The reaction mixtures were incubated for 30 min at room temperature. The level of intracellular cAMP was determined using the HTRF HiRange cAMP assay reagent kit (Cisbio) according to manufacturer's instruction. Solutions of cryptate conjugated anti-cAMP and d2 flurorophore-labelled cAMP were made in a supplied lysis buffer separately. Upon completion of the reaction, the cells were lysed with equal volume of the d2-cAMP solution and anti-cAMP solution. After a 1-h room temperature incubation, time-resolved fluorescence intensity was measured using the Envision (Perkin-Elmer) at 400 nm excitation and dual emission at 590 nm and 665 nm. A calibration curve was constructed with an external cAMP standard at concentrations ranging from 1 μM to 0.1 μM by plotting the fluorescent intensity ratio from 665 nm emission to the intensity from the 590 nm emission against cAMP concentrations. The potency and activity of a compound to inhibit cAMP production was then determined by fitting to a 4-parametric logistic equation from a plot of cAMP level versus compound concentrations.

human FPR1 = human FPR1 (Homo sapiens (Human), UniProt P21462); experiment: FPR1 cyclic adenosine monophosphate (cAMP) assay; assay type: cell-based; settings: CHO cells overexpressing human FPR1; forskolin 10 μM, IBMX 200 μM; inhibition of cAMP production, HTRF; read-out: hFPR1 cAMP EC50
Sequence of human FPR1 (P21462 whole entry): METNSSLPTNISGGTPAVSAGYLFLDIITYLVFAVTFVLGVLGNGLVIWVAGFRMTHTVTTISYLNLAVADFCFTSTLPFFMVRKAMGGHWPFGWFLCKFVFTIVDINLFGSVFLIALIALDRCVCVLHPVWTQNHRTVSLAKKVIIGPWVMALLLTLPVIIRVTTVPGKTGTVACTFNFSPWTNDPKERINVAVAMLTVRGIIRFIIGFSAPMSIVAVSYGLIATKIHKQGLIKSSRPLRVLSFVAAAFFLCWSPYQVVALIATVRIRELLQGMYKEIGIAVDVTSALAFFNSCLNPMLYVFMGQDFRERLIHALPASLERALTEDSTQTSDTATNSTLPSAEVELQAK
Source text: as §1, §2

Sequence of human FPR2 (P25090 whole entry): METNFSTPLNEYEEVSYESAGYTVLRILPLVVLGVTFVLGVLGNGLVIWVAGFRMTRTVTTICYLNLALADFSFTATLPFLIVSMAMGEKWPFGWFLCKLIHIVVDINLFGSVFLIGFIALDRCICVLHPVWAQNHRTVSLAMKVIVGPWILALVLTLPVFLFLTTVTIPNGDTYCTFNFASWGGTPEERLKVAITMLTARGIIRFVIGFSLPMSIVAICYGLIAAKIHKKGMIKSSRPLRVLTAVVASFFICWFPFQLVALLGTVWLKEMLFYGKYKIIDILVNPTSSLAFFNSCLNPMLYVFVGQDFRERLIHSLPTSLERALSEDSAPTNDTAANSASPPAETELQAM

SMILES | EC50 (human FPR2) | EC50 (human FPR1)
CCn1cccc(N2C[C@@H](c3c(F)cc(OC)cc3F)[C@H](NC(=O)NC3CCc4cc(OC)ccc4C3)C2=O)c1=O (some centres unmarked) [Example 37] | 4.5 nM | 11 nM
COCCn1cccc(N2C[C@@H](c3c(F)cc(OC)cc3F)[C@H](NC(=O)NC3CCc4cc(OC)ccc4C3(C)C)C2=O)c1=O (some centres unmarked) [Example 45] | 6.7 nM | 562 nM
COCC(CO)n1cccc(N2C[C@@H](c3c(F)cc(OC)cc3F)[C@H](NC(=O)NC3CCc4cc(OC)ccc4C3)C2=O)c1=O (single isomer, unassigned) [Example 2] | 20 nM | 40 nM
COc1cc(F)c([C@@H]2CN(c3nccc(NC4CCOCC4)c3C(F)(F)F)C(=O)[C@H]2NC(=O)N[C@H]2CC[C@H](C(F)F)CC2)c(F)c1 [Example 68] | 27 nM | 4800 nM
COc1cc(F)c([C@@H]2CN(c3cccn(CCO)c3=O)C(=O)[C@H]2NC(=O)NC2CCc3cc(Cl)ccc3C2)c(F)c1 (some centres unmarked) [Example 14] | 1.4 nM | 0.8 nM
COc1cc(F)c([C@H]2[C@H](NC(=O)NC3CCc4cc(OC)ccc4C3(C)C)C(=O)N(c3ncccc3C(F)(F)F)[C@H]2C)c(F)c1 (some centres unmarked) [Example 59] | 29 nM | 470 nM
CCn1nccc(N2C[C@@H](c3c(F)cc(OC)cc3F)[C@H](NC(=O)NC3CCc4cc(OC)ccc4C3)C2=O)c1=O (single isomer, unassigned) [Example 87] | 3.2 nM | 4.8 nM
COc1cc(F)c([C@@H]2CN(c3ncccc3C(F)(F)F)C(=O)[C@H]2NC(=O)NC2CCc3cc(Cl)ccc3C2)c(F)c1 (some centres unmarked) [Example 31] | 3.8 nM | 110 nM
COCCn1ccc(C)c(N2C[C@@H](c3c(F)cc(OC)cc3F)[C@H](NC(=O)NC3CCc4cc(Cl)ccc4C3)C2=O)c1=O (some centres unmarked) [Example 22] | 2.7 nM | 2.1 nM
COCCn1cccc(N2C[C@@H](c3c(F)cc(OC)cc3F)[C@H](NC(=O)N[C@H]3CC[C@H](C(F)F)CC3)C2=O)c1=O [Example 70] | 33 nM | 1200 nM
COc1cc(F)c([C@@H]2CN(c3nccc(N4CCOCC4)c3C(F)(F)F)C(=O)C2NC(=O)N[C@H]2CC[C@H](C(F)F)CC2)c(F)c1 (stereo partly drawn) [Example 1, 1-((3S,4R)-4-(2,6-Difluoro-4-methoxyphenyl)-1-(4-morpholino-3-(trifluoromethyl)pyridin-2-yl)-2-oxopyrrolidin-3-yl)-3-((1r,4S)-4-(difluoromethyl)cyclohexyl) urea] | 14.8 nM | 6800 nM
COc1cc(F)c([C@@H]2CN(c3ncccc3C(F)(F)F)C(=O)[C@H]2NC(=O)NC2CCc3cc(OC)ccc3C2)c(F)c1 (some centres unmarked) [Example 47] | 7.3 nM | > 10000 nM
COc1cc(F)c([C@@H]2CN(c3cccn(CC(O)C(F)(F)F)c3=O)C(=O)[C@H]2NC(=O)NC2CCc3cc(OC)ccc3C2)c(F)c1 (single isomer, unassigned) [Example 77] | 15 nM | 
COc1cc(F)c([C@@H]2CN(c3ncccc3C(F)(F)F)C(=O)[C@H]2NC(=O)NC2COc3cc(OC)ccc3C2)c(F)c1 (some centres unmarked) [Example 28] | 3.3 nM | 3 nM
CNC(=O)C(C)Nc1ccnc(N2C[C@@H](c3c(F)cc(OC)cc3F)[C@H](NC(=O)N[C@H]3CC[C@H](C(F)F)CC3)C2=O)c1C(F)(F)F (single isomer, unassigned) [Example 75] | 21 nM | > 1000 nM
COc1cc(F)c([C@@H]2CN(c3nccc(NCC(C)(C)O)c3C(F)(F)F)C(=O)[C@H]2NC(=O)N[C@H]2CC[C@H](C(F)F)CC2)c(F)c1 [Example 104] | 39 nM | 5000 nM
COc1cc(F)c([C@@H]2CN(c3nccc(NCCS(C)(=O)=O)c3C(F)(F)F)C(=O)[C@H]2NC(=O)N[C@H]2CC[C@H](C(F)F)CC2)c(F)c1 [Example 98] | 7.2 nM | > 5000 nM
COc1cc(F)c([C@@H]2CN(c3ncccc3C(F)(F)F)C(=O)[C@H]2NC(=O)NC2CCc3ccccc3C2)c(F)c1 (some centres unmarked) [Example 24] | 2.8 nM | 18 nM
COc1cc(F)c([C@@H]2CN(c3cccn(CCO)c3=O)C(=O)[C@H]2NC(=O)N[C@H]2CC[C@H](C(F)F)CC2)c(F)c1 [Example 65] | 55 nM | 5000 nM
COCCn1cccc(N2C[C@@H](c3ccc(OC)cc3)[C@H](NC(=O)NC3CCc4cc(Cl)ccc4C3)C2=O)c1=O (some centres unmarked) [Example 5] | 0.2 nM | 
COc1cc(F)c([C@@H]2CN(c3cccn(C(F)F)c3=O)C(=O)[C@H]2NC(=O)NC2CCc3cc(OC)ccc3C2)c(F)c1 (single isomer, unassigned) [Example 94] | 1.6 nM | 1.2 nM
COCCn1cccc(N2C(=O)[C@@H](NC(=O)NC3CCc4cc(OC)ccc4C3)[C@H](c3c(F)cc(OC)cc3F)[C@@H]2C)c1=O (some centres unmarked) [Example 29] | 3.3 nM | 2.4 nM
COc1cc(F)c([C@H]2[C@H](NC(=O)NC3CCc4cc(OC)ccc4C3)C(=O)N(c3cccn(CCO)c3=O)[C@H]2C)c(F)c1 (single isomer, unassigned) [Example 89] | 7.1 nM | 4.3 nM
COc1cc(F)c([C@@H]2CN(c3cccn(CC(O)C(F)(F)F)c3=O)C(=O)[C@H]2NC(=O)NC2CCc3cc(OC)ccc3C2)c(F)c1 (some centres unmarked) [Example 79] | 7.3 nM | 

Further molecules by falling EC50 (human FPR2), results first:

EC50 (human FPR2) | EC50 (human FPR1) | SMILES
44 nM | > 5000 nM | COc1cc(F)c([C@@H]2CN(c3nccc(N4CCC(C)(O)C4)c3C(F)(F)F)C(=O)[C@H]2NC(=O)N[C@H]2CC[C@H](C(F)F)CC2)c(F)c1 (single isomer, unassigned) [Example 92]
26 nM | > 1000 nM | COc1cc(F)c([C@@H]2CN(c3nccc(NCC4CCOC4)c3C(F)(F)F)C(=O)[C@H]2NC(=O)N[C@H]2CC[C@H](C(F)F)CC2)c(F)c1 (single isomer, unassigned) [Example 74]
23 nM | > 1000 nM | CNC(=O)C(C)Nc1ccnc(N2C[C@@H](c3c(F)cc(OC)cc3F)[C@H](NC(=O)N[C@H]3CC[C@H](C(F)F)CC3)C2=O)c1C(F)(F)F (single isomer, unassigned) [Example 76]
9.1 nM | > 10000 nM | COc1cc(F)c([C@@H]2CN(c3nccc(N4CCN(S(C)(=O)=O)CC4)c3C(F)(F)F)C(=O)[C@H]2NC(=O)N[C@H]2CC[C@H](C(F)F)CC2)c(F)c1 [Example 88]
7.4 nM | 600 nM | COc1cc(F)c([C@H]2[C@H](NC(=O)N[C@H]3CC[C@H](C(F)F)CC3)C(=O)N(c3ncccc3OC)[C@H]2C)c(F)c1 [Example 48]
3.6 nM | 2500 nM | COc1cc(F)c([C@@H]2CN(c3nccc(N4CCN(C)CC4)c3C(F)(F)F)C(=O)[C@H]2NC(=O)N[C@H]2CC[C@H](C(F)F)CC2)c(F)c1 [Example 30]
2.8 nM | 1630 nM | COc1cc(F)c([C@@H]2CN(c3nccc(N4C[C@@H](C)N(C)[C@@H](C)C4)c3C(F)(F)F)C(=O)[C@H]2NC(=O)N[C@H]2CC[C@H](C(F)F)CC2)c(F)c1 [Example 25]
2.8 nM |  | COCCn1cccc(N2C(=O)[C@@H](NC(=O)NC3CCc4cc(OC)ccc4C3)[C@H](c3c(F)cc(OC)cc3F)[C@@H]2C)c1=O (some centres unmarked) [Example 26]
1.5 nM | 0.4 nM | COc1cc(F)c([C@@H]2CN(c3cccn(CCO)c3=O)C(=O)[C@H]2NC(=O)NC2CCc3cc(OC)ccc3C2)c(F)c1 (some centres unmarked) [Example 21]
1.4 nM | 0.3 nM | COc1cc(F)c([C@@H]2CN(c3c(C)ccn(CCO)c3=O)C(=O)[C@H]2NC(=O)NC2CCc3cc(OC)ccc3C2)c(F)c1 (single isomer, unassigned) [Example 84]
1.3 nM |  | CCn1cccc(N2C[C@@H](c3ccc(OC)cc3)[C@H](NC(=O)NC3CCc4cc(OC)ccc4C3)C2=O)c1=O (some centres unmarked) [Example 13]
0.5 nM | 0.7 nM | COCCn1ccc(C)c(N2C[C@@H](c3c(F)cc(OC)cc3F)[C@H](NC(=O)NC3CCc4cc(OC)ccc4C3)C2=O)c1=O (some centres unmarked) [Example 7]
0.4 nM | 0.1 nM | CCn1cccc(N2C[C@@H](c3ccc(OC)cc3)[C@H](NC(=O)NC3CCc4cc(Cl)ccc4C3)C2=O)c1=O (some centres unmarked) [Example 6]
0.4 nM | 1400 nM | COc1cc(F)c([C@@H]2CN(c3nccc(N4C[C@@H]5C[C@H]4CN5C)c3C(F)(F)F)C(=O)[C@H]2NC(=O)N[C@H]2CC[C@H](C(F)F)CC2)c(F)c1 (single isomer, unassigned) [Example 97]
